Assay results reported in US4122184A, “Benzimidazole insecticides” (priority 1977, dated 1978).

Columns and labels:
Bean Leaf Beetle = test: Field trial, stomach poison test; format: in vivo
Method in brief: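 Treated foliage (dipped, or sprayed at 10 psi, then dried) is offered to counted insects in dishes. Scoring of mortality uses a 0–9 scale at three time points up to 72 h.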

Southern Armyworm = Southern Armyworm Test; format: in vivo, Prodenia eridania (Lepidoptera); conditions: 48 h
Procedure: Ten uniform Southern armyworm larvae about 1-1.5 cm. in length, grown on Henderson lima beans, are placed on excized bean leaves in petri dishes. The bean leaves are obtained and sprayed with the insecticide in the same way as are the snap bean leaves in the Mexican bean beetle test. The reference standards in this instance are leaves sprayed with 5 ml. 100 ppm DDT solution. Mortality counts are made 48 hours after spraying and again moribund larvae are counted as dead. Missing larvae which have probably been eaten are considered alive. The same rating scale is used as in the Mexican bean beetle test.

Milkweed Bug = Milkweed Bug Test; format: in vivo, Oncopeltis fasciatus (Hemiptera); conditions: 48 h
Method in brief: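 Ten chilled adult milkweed bugs per cage sprayed with 5 ml test formulation at 10 psi, then fed and watered. Mortality, counting moribund as dead, scored 48 h after spraying; 500 ppm malathion as reference, unsprayed cages as controls.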

Mexican Bean Beetle = Mexican Bean Beetle Test; format: in vivo, Epilachna varivestis (Coleoptera); conditions: 48 h
Procedure: Cuttings of four six-day old Bountiful snap bean plants containing two leaves with approximately 5 square inches of leaf surface, are placed in water. The leaves are sprayed to wetting with about 5-10 ml. of a formulation containing a pre-determined level of the test compound. Half of the formulation is sprayed on the top surface and half on the bottom surface of the leaf using a DeVilbiss atomizer at 10 psi held at a distance of about 18 inches from the leaf. After the leaves have dried, they are cut from the stem and placed separately in petri dishes. Ten third instar, nonmolting Mexican bean beetle larvae grown on Bountiful snap beans are placed on each leaf. Controls consist of two leaves sprayed with 5 ml. of a 500 ppm malathion formulation (reference standard), two leaves sprayed with the formulation without the active ingredient and two leaves are held as untreated controls. After 48 hours, a mortality count is made and the amount of feeding noted. Moribund larvae are counted as dead.

Squash Bug Adults = test: Field trial, contact poison test; format: in vivo; design: key: 0-9 rating: 0 = 0-10% mortality, 9 = 91-100% mortality
Method in brief: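 Contact spray, atomizer 10 psi, arm's length, several concentrations; infested plants in water bottles, stems wrapped in cellucotton, plants spaced apart. Scored 24, 48, 72 h; scale 0–9 by percent mortality.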

Melon Aphid = Melon Aphid Test; format: in vivo, Aphis gossypii (Hemiptera); conditions: 24 h
Description: Four blue hubbard squash seeds are planted per container in vermiculite and the containers watered from the bottom. After 6 days, the two weakest plants are cut off and one cotyledon and the primary leaves are removed from each of the two remaining plants. The remaining cotyledon is infested with 100 melon aphids from a stock colony by pinning the cotyledon against an aphid-infested squash cotyledon from the colony and allowing the aphids to transfer. After transfer, the colony leaf is removed. Forty-eight hours later, the infested leaves are sprayed to wetting with formulations containing graded amounts of the insecticide using a DeVilbiss atomizer at 10 psi held at 12-15 inches from the plant. Controls consist of two infested, unsprayed squash plants and two infested plants sprayed to wetting with a formulation containing 100 ppm malathion as a reference standard. The mortality is estimated 24 hours after spraying by observation using a 10 power dissecting microscope. The same rating scale is used as before.

Boll Weevil = test: Field trial (first summer), topical; format: in vivo, Anthonomus grandis; conditions: .078125 μg/μl
Method in brief: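 Field trial from the first summer in which 1 µl of test solution holding a set number of micrograms of benzimidazole was applied topically to larvae or adult insects. Mortality at a given route and concentration was scored on a 0–9 scale.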

Yellow Mealworm Larvae = test: Field trial, topical application; format: in vivo; design: key: 0 = 0-10% mortality, 9 = 91-100% mortality (0-9 scale)
Method in brief: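 1 μL benzimidazole solution of set microgram content applied topically to larvae or adults. Mortality read at 24, 48 and 72 h where applicable, rated 0-9 (0 = 0-10%, 9 = 91-100%); values are average mortality per concentration.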

“mixture of phenyl 2,6-bis(trifluoromethyl)-4-nitro-1-benzimidazolecarboxylate and phenyl 2,5-bis(trifluoromethyl)-1-benzimidazolecarboxylate” was tested, and the average mortality rating (Bean Leaf Beetle; 10 ppm) was 1, the average mortality rating (Bean Leaf Beetle; 25 ppm) was 0 (0-10 percent) and the average mortality rating (Bean Leaf Beetle; 50 ppm) was 0 (0-10 percent). The mortality rating (Southern Armyworm; 250 ppm) was 1 (11-20), the mortality rating (Southern Armyworm; 500 ppm) was 1 (11-20) and the mortality rating (Southern Armyworm; 1000 ppm) was 1 (11-20). For the same substance, the mortality rating (Milkweed Bug; 250 ppm) was 1 (11-20), the mortality rating (Milkweed Bug; 500 ppm) was 9 (91-100) and the mortality rating (Milkweed Bug; 1000 ppm) was 9 (91-100). The mortality rating (Mexican Bean Beetle; 10 ppm) was 4 (41-50), the mortality rating (Mexican Bean Beetle; 25 ppm) was 3 (31-40) and the mortality rating (Mexican Bean Beetle; 50 ppm) was 7 (71-80). The mortality rating (Mexican Bean Beetle; 100 ppm) was 9 (91-100), the mortality rating (Mexican Bean Beetle; 250 ppm) was 9 (91-100) and the mortality rating (Mexican Bean Beetle; 500 ppm) was 9 (91-100). For the same substance, the mortality rating (Mexican Bean Beetle; 1000 ppm) was 9 (91-100), the average mortality rating (Squash Bug Adults; 125 ppm) was 2 and the average mortality rating (Squash Bug Adults; 250 ppm) was 2. For the same substance, the average mortality rating (Squash Bug Adults; 500 ppm) was 6, the average mortality rating (Squash Bug Adults; 750 ppm) was 8 and the mortality rating (Melon Aphid; 25 ppm) was 0 (0-10). The mortality rating (Melon Aphid; 50 ppm) was 4 (41-50), the mortality rating (Melon Aphid; 100 ppm) was 8 (81-90) and the mortality rating (Melon Aphid; 250 ppm) was 7 (71-80). The mortality rating (Melon Aphid; 500 ppm) was 8 (81-90), the mortality rating (Melon Aphid; 1000 ppm) was 6 (61-70) and the insect mortality rating (Boll Weevil) was 9 (91-100 percent mortality). It also gave an average mortality rating (Yellow Mealworm Larvae; 0.03 μg/μl) of 3, an average mortality rating (Yellow Mealworm Larvae; 0.07 μg/μl) of 3 and an average mortality rating (Yellow Mealworm Larvae; 0.15 μg/μl) of 6.
